Test results taken from ChEMBL document CHEMBL1137379, “9-{[3-fluoro-2-(hydroxymethyl)cyclopropylidene]methyl}adenines and -guanines. Synthesis and antiviral activity of all stereoisomers1” (J Med Chem, 2006).
Active and inactive are the calls of the source. The rule behind the calls is not given here.

What was measured:
[1] = tested on: Human betaherpesvirus 5; assay: Inhibition of HCMV AD169 replication in HFF cells by cytopathic effect assay; format: functional, organism-based; settings: Human betaherpesvirus 5, AD169, HFF
[2] = tested on: HFF; assay: Cytotoxicity against HFF cell by neutral red uptake assay; format: functional; settings: Homo sapiens
[3] = tested on: Human gammaherpesvirus 4; assay: Inhibition of EBV replication in H1 cells by DNA hybridization assay; format: functional, organism-based; settings: human gammaherpesvirus 4, H1
[4] = tested on: Human betaherpesvirus 5; assay: Inhibition of HCMV towne replication in HFF cells by plaque reduction assay; format: functional, organism-based; settings: Human betaherpesvirus 5, Towne
[5] = tested on: Hepatitis B virus; assay: Inhibition of HBV replication in 2.2.15 cells by DNA hybridization assay; format: functional, organism-based; settings: HepG2 2.2.15
[6] = tested on: HepG2; assay: Cytotoxicity against 2.2.15 cells; format: functional; settings: Homo sapiens
[7] = target: T1, Adenosine deaminase (Bos taurus) (UniProt P56658); assay: Activity at calf intestine ADA by adenosine deaminase assay after 24 hrs
T1 sequence (whole entry): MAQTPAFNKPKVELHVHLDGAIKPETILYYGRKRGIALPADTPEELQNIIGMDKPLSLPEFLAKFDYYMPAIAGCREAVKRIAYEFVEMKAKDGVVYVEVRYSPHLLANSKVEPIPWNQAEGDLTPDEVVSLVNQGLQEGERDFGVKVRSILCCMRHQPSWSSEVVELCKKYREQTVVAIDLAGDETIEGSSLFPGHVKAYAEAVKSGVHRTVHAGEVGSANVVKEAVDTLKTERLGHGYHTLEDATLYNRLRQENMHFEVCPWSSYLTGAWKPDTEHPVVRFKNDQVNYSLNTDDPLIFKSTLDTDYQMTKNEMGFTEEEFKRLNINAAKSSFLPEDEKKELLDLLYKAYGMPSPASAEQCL

[8] = target: T1, Adenosine deaminase (Bos taurus); assay: Activity at calf intestine ADA by adenosine deaminase assay after 48 hrs
[9] = tested on: Human immunodeficiency virus 1; assay: Inhibition of HIV1 LAI replication in MT2 cells by cytopathic effect assay; format: functional, organism-based; settings: Human immunodeficiency virus 1, LAI
[10] = tested on: MT2; assay: Cytotoxicity against MT2 cells; format: functional; settings: Homo sapiens
[11] = tested on: Human alphaherpesvirus 1; assay: Inhibition of HSV1 replication in BSC1 cells by ELISA; format: functional, organism-based; settings: Human alphaherpesvirus 1, BSC-1
[12] = tested on: KB; assay: Cytotoxicity against KB cells; format: functional; settings: Homo sapiens
[13] = tested on: Human gammaherpesvirus 4; assay: Inhibition of EBV replication in Daudi cells by viral capsid antigen-ELISA; format: functional, organism-based; settings: human gammaherpesvirus 4, Daudi
[14] = tested on: Daudi; assay: Cytotoxicity against Daudi cells; format: functional; settings: Homo sapiens

Nc1nc2c(ncn2COC(CO)CO)c(=O)[nH]1 [GANCICLOVIR]
EC50 [1]: 150 nM
CC50 [2]: > 100 µM
EC50 [3]: 5 µM
EC50 [4]: 1800 nM

Nc1ccn([C@@H]2CS[C@H](CO)O2)c(=O)n1 [LAMIVUDINE]
EC50 [5]: 20 nM
CC50 [6]: > 100 µM

Nc1ncnc2c1ncn2/C=C1/[C@@H](F)[C@H]1CO (relative stereo)
Activity [7]: 50%

Nc1ncnc2c1ncn2/C=C1\[C@H](F)[C@H]1CO (relative stereo)
Activity [8]: inactive

Cc1cn([C@H]2C[C@H](N=[N+]=[N-])[C@@H](CO)O2)c(=O)[nH]c1=O [ZIDOVUDINE]
EC50 [9]: 20 nM
CC50 [10]: > 10 µM

Nc1nc2c(ncn2COCCO)c(=O)[nH]1 [ACYCLOVIR]
EC50 [11]: 3.5 µM
CC50 [12]: > 100 µM
EC50 [13]: 330 nM
CC50 [14]: > 100 µM

Nc1ncnc2c1ncn2/C=C1/[C@@H](CO)[C@H]1F (relative stereo)
Activity [7]: 50%

Nc1ncnc2c1ncn2/C=C1/[C@@H](F)[C@@H]1CO (relative stereo)
Activity [7]: 50%
